Measurements taken from publication PMC10281726 (Journal of Food and Drug Analysis, 2023).
pIC50: −log10 of the molar value.

Tests used:
Assay type in all cases: biochemical
[1] = target: MKNK1 (Homo sapiens, UniProt Q9BUB5); test: kinase panel; details: read-out: % inhibition at 3 μM
[2] = target: T1, STK3 (Homo sapiens, UniProt Q13188); test: kinase panel; details: read-out: % inhibition at 3 μM
T1 sequence (Q13188 1-491): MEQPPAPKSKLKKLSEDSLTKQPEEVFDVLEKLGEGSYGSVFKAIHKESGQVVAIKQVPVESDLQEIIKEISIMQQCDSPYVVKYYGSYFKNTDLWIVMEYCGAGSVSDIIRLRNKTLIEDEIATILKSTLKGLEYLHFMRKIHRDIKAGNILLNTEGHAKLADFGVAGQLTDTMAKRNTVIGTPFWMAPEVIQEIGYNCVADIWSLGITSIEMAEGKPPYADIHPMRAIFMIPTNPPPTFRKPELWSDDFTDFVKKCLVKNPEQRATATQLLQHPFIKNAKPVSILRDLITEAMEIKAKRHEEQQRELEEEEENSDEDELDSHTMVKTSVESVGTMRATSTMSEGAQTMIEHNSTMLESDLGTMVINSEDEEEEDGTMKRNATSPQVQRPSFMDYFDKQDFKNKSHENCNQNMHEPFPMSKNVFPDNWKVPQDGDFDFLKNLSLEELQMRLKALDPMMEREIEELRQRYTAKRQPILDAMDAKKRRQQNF

[3] = target: dual-specific tyrosine phosphorylation-regulated kinase 1A (DYRK1A) (Homo sapiens, UniProt Q13627); test: Z'-LYTE FRET-peptide kinase assay, dose response
[4] = target: VRK2 (Homo sapiens, UniProt Q86Y07); test: kinase panel; details: read-out: % inhibition at 3 μM
[5] = target: MINK1 (Homo sapiens, UniProt Q8N4C8); test: kinase panel; details: read-out: % inhibition at 3 μM
Sequence of MINK1 (Q8N4C8 whole entry): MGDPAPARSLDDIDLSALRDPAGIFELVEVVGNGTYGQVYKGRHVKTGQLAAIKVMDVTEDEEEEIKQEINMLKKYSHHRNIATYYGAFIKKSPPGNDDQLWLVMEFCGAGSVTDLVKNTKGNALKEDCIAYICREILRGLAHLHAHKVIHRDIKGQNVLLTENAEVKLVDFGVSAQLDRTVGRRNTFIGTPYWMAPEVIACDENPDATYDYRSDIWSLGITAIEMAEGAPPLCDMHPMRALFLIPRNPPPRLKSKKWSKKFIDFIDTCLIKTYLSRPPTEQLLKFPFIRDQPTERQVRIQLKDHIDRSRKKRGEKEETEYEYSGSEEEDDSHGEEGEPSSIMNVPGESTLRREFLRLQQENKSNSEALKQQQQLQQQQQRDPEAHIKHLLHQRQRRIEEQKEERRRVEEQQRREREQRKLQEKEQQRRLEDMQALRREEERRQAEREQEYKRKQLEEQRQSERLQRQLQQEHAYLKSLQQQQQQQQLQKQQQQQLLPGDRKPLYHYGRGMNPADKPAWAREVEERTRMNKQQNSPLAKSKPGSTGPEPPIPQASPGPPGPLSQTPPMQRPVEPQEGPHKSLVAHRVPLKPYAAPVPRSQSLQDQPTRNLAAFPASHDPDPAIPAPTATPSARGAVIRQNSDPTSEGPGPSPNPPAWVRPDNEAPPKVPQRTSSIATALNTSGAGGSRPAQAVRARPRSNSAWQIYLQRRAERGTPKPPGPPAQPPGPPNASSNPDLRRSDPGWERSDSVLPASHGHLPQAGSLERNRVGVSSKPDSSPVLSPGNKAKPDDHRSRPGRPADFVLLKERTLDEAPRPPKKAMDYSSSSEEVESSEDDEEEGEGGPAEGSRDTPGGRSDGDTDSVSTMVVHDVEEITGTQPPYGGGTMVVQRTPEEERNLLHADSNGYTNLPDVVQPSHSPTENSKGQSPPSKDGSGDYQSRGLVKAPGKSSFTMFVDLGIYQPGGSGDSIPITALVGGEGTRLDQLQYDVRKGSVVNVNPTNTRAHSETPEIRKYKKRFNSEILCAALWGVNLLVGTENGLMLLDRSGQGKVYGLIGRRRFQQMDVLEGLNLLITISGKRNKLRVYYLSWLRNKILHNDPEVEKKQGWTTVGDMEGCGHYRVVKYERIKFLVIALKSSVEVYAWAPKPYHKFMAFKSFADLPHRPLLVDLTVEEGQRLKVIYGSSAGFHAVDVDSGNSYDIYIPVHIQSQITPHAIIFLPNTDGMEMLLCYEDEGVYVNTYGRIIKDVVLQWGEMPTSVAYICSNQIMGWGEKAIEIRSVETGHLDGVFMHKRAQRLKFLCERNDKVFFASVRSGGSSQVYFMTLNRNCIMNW

Sequence of VRK2 (Q86Y07 whole entry): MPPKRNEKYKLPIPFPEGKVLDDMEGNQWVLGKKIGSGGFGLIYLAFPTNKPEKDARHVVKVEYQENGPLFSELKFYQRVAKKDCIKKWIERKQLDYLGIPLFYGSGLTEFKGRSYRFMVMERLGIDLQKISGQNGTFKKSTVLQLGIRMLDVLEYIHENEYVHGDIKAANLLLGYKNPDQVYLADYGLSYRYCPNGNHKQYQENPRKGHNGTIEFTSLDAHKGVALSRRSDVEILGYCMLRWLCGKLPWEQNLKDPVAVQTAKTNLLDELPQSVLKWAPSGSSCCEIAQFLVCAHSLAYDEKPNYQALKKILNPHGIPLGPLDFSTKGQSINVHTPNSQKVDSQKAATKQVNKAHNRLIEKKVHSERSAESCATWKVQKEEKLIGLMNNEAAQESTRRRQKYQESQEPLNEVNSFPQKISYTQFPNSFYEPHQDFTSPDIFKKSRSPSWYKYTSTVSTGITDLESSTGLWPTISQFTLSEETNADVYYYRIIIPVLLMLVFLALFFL
Sequence of MKNK1 (Q9BUB5 whole entry): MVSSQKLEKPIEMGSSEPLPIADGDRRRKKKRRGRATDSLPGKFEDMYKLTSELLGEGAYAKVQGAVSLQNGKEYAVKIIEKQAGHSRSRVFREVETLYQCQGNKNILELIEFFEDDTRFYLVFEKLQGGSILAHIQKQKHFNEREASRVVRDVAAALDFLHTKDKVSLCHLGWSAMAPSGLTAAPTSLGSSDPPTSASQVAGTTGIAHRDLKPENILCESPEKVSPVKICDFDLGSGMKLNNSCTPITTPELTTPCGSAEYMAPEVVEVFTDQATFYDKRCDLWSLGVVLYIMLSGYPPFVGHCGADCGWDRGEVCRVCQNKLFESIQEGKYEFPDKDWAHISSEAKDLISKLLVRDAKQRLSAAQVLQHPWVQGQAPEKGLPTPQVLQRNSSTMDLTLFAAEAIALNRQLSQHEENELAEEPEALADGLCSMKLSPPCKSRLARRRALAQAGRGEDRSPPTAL

SMILES: O=c1oc2cc(O)ccc2c2ccc(O)cc12 [UA, Urolithin A]
- inhibition at 3 µM [1]: > 50%
- inhibition at 3 µM [2]: > 50%
- pIC50 [3]: 6.04
- inhibition at 3 µM [4]: > 50%
- inhibition at 3 µM [5]: > 50%
